Experimental data taken from PubChem BioAssay AID1259408 (Genetic Toxicology Data Bank (GENE-TOX), 2018).
Activity calls are given as the source filed them. How the calls were made is not given here.

System: GENE-TOX genotoxicity assays, various organisms and cells
Assay: GENE-TOX mutagenicity studies
Source text: GENE-TOX provides genetic toxicology (mutagenicity) test data from expert peer review of open scientific literature for more than 3,000 chemicals from the United States Environmental Protection Agency (EPA). GENE-TOX was established to select assay systems for evaluation, review data in the scientific literature, and recommend proper testing protocols and evaluation procedures for these systems.
GENE-TOX covers the years 1991 - 1998. It is no longer updated.
This is an archive assay for GENE-TOX mutagenicity studies.

[1] = Species/Cell Type: Chinese hamster lung (V79) cells, Assay Type: Forward gene mutation at the HPRT or ouabain locus, Assay Code: V79+, Evaluation Type: Evaluation A (Pre-1980)
[2] = Species/Cell Type: Nonhuman, Assay Type: Sister-chromatid exchange (SCE) in vitro, Assay Code: SC2+D, Dose Response: With dose response, Evaluation Type: Evaluation B (Post-1980)
[3] = Species/Cell Type: Drosophila melanogaster, Assay Type: Sex-linked recessive lethal gene mutation, Assay Code: SRLT, Evaluation Type: Evaluation A (Pre-1980)

## O=C[C@H](NC(=O)N(CCCl)N=O)[C@@H](O)[C@H](O)[C@H](O)CO
[1]
  mutagenic call: active; positive
Species/Cell Type: Drosophila melanogaster, Assay Type: Sex-linked recessive lethal gene mutation, Assay Code: SRL+, Evaluation Type: Evaluation A (Pre-1980)
  mutagenic call: active; positive
Species/Cell Type: Nonhuman, Assay Type: In vivo carcinogenicity studies, Assay Code: CCG+L, Evaluation Type: Evaluation A (Pre-1980)
  call: active; positive
[2]
  mutagenic call: active; positive
Species/Cell Type: Saccharomyces cerevisiae, Assay Type: Mitotic recombination or gene conversion, Assay Code: YEC+, Evaluation Type: Evaluation A (Pre-1980)
  mutagenic call: active; positive

## CCN(CCCl)CCCNc1c2ccccc2nc2c1ccc1cccnc12
Species/Cell Type: Chinese hamster ovary (CHO) cells, Assay Type: Forward gene mutation at the HPRT locus, Assay Code: CHO+, Evaluation Type: Evaluation B (Post-1980)
  mutagenic call: active; positive

## COC(C)[C@](O)(C(=O)O)C(C)C (some centres undefined)
[3]
  mutagenic call: no conclusion

## C=CC(=O)OC
Species/Cell Type: Mammalian polychromatic erythrocytes, Assay Type: Micronucleus test, chromosome aberrations, Assay Code: MNT+U, Dose Response: Unconfirmed positive response, Evaluation Type: Evaluation B (Post-1980)
  mutagenic call: active; positive

## ClC1=C(Cl)[C@]2(Cl)[C@@H]3[C@@H]4C[C@@H]([C@H]5O[C@@H]45)[C@@H]3[C@@]1(Cl)C2(Cl)Cl
[1]
  mutagenic call: active; positive
[3]
  mutagenic call: no conclusion
Species/Cell Type: Rodents, Sex: Male, Assay Type: Dominant lethal test, Assay Code: DLT-, Evaluation Type: Evaluation A (Pre-1980)
  mutagenic call: inactive; negative
Species/Cell Type: Saccharomyces cerevisiae, Assay Type: Forward and reverse gene mutation, mitotic recombination and gene conversion, host-mediated assay, Assay Code: HME-, Evaluation Type: Evaluation A (Pre-1980)
  mutagenic call: inactive; negative
Species/Cell Type: Saccharomyces cerevisiae, Assay Type: Mitotic recombination or gene conversion, Assay Code: YEH-, Evaluation Type: Evaluation A (Pre-1980)
  mutagenic call: inactive; negative
Species/Cell Type: Salmonella typhimurium (one or more of the five standard strains: TA98, TA100, TA1535, TA1537, and TA1538), Assay Type: Histidine reverse gene mutation, Ames assay, Assay Code: SAL-, Evaluation Type: Evaluation A (Pre-1980)
  mutagenic call: inactive; negative

## CCCCNC(N)=O
Species/Cell Type: Nonhuman, Assay Type: Chromosome aberrations in vitro, Assay Code: CY&-, Evaluation Type: Evaluation A (Pre-1980)
  mutagenic call: inactive; negative
Species/Cell Type: Nonhuman, Assay Type: Sister-chromatid exchange (SCE) in vitro, Assay Code: SC2+, Evaluation Type: Evaluation A (Pre-1980)
  mutagenic call: active; positive

## CCCCCCCCCCCCN=C(N)N
Species/Cell Type: Saccharomyces cerevisiae, Assay Type: Mitotic recombination or gene conversion, Assay Code: YEC-, Evaluation Type: Evaluation A (Pre-1980)
  mutagenic call: inactive; negative

## C=CBr
Species/Cell Type: Tradescantia species, Assay Type: Gene mutation, Assay Code: TRM+D, Dose Response: With dose response, Evaluation Type: Evaluation A (Pre-1980)
  mutagenic call: active; positive

## C[C@]12CCC(=O)C=C1CC[C@@H]1[C@@H]2CC[C@@]2(C)[C@H]1CC[C@]2(C)O
Species/Cell Type: Human, Sex: Male, Assay Type: Sperm morphology, Assay Code: SPH-, Evaluation Type: Evaluation A (Pre-1980)
  mutagenic call: inactive; negative

## C
Species/Cell Type: Nonhuman, Assay Type: Sister-chromatid exchange (SCE) in vitro, Assay Code: SC2+, Evaluation Type: Evaluation B (Post-1980)
  mutagenic call: active; positive

## CCC(=O)Oc1ccc(/C(CC)=C(\CC)c2ccc(OC(=O)CC)cc2)cc1
Species/Cell Type: Human lymphocytes, Assay Type: Sister-chromatid exchange (SCE) in vitro, Assay Code: SCL+, Evaluation Type: Evaluation B (Post-1980)
  mutagenic call: active; positive
Species/Cell Type: Human, Assay Type: Sister-chromatid exchange (SCE) in vitro, Assay Code: SC1+, Evaluation Type: Evaluation B (Post-1980)
  mutagenic call: active; positive
Species/Cell Type: Nonhuman, Assay Type: Sister-chromatid exchange (SCE) in vivo, Assay Code: SC3T, Evaluation Type: Evaluation B (Post-1980)
  mutagenic call: no conclusion
Species/Cell Type: Saccharomyces cerevisiae, Assay Type: Aneuploidy, chromosome aberrations, Assay Code: YEN+, Evaluation Type: Evaluation A (Pre-1980)
  mutagenic call: active; positive

## O=[N+]([O-])c1cc([N+](=O)[O-])c2ccc3cccc4ccc1c2c43
Species/Cell Type: Chinese hamster ovary (CHO) cells, Assay Type: Forward gene mutation at the HPRT locus, Assay Code: CHO+*, Activation: With metabolic activation, Evaluation Type: Evaluation B (Post-1980)
  mutagenic call: active; positive

## NCCSSCCN
Species/Cell Type: Human lymphocytes, Assay Type: Sister-chromatid exchange (SCE) in vitro, Assay Code: SCLT, Evaluation Type: Evaluation B (Post-1980)
  mutagenic call: no conclusion
Species/Cell Type: Human, Assay Type: Sister-chromatid exchange (SCE) in vitro, Assay Code: SC1T, Evaluation Type: Evaluation B (Post-1980)
  mutagenic call: no conclusion
[2]
  mutagenic call: active; positive

## CS(=O)(=O)OC/C=C\COS(C)(=O)=O
[3]
  mutagenic call: no conclusion
